Measured values as given in US20030170858A1, “Gyrase inhibitors and uses thereof” (priority 2001, published 2003).

Biological target: E. coli gyrase A2B2 (Escherichia coli, UniProt P0AES6)
Experiment: E. coli gyrase A2B2 ATPase assay
Type: biochemical
Details: 40 nM Gyr A2B2 from E coli, 0.9 mM ATP, 30° C., read-out: Activity against E. coli gyrase (Ki)
Procedure: The ATP hydrolysis activity of DNA gyrase was measured by coupling the production of ADP through pyruvate kinase/lactate dehydrogenase to the oxidation of NADH. This method has been described previously. (Tamura and Gellert, 1990, J. Biol. Chem. 265, 21342-21349).
ATPase assays were carried out at 30° C. in buffered solutions containing 100 mM TRIS pH 7.6, 1.5 mM MgCl2, and 150 mM KCl. The coupling system contained (final concentrations) 2.5 mM phosphoenol pyruvate, 200 μM nicotinamide adenine dinucleotide (NADH), 1 mM DTT, 30 ug/ml pyruvate kinase, and 10 ug/ml lactate dehydrogenase. 40 nM enzyme (374 kDa Gyr A2B2 from E coli) and a DMSO solution of the inhibitor to a final concentration of 4% were added and the reaction mixture allowed to incubate for 10 minutes at 30° C. The reaction was then started by the addition of ATP to a final concentration of 0.9 mM and the rate of NADH disappearance at 340 nm, measured over the course of 10 minutes. Ki values were determined from rate versus. inhibitor concentration profiles.

CCOC(=O)c1cc(-c2sc(-c3cccnc3)nc2CN2CCNCC2)n[nH]1 [IA-67]
Ki: 500 to 1500 nM
